PubChem BioAssay (NCI)
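Grown in 96-well plates, cells were treated for 48 hours with each compound at five concentrations. Insufficient inhibition: endpoint recorded as highest concentration tested. TGI is the concentration that stops growth completely.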

Assays:
Assay in all cases: NCI anticancer screen, dose series, 48 h
ACHN renal = system: ACHN renal
OVCAR-3 ovarian = system: OVCAR-3 ovarian
SN12C renal = system: SN12C renal
SK-MEL-2 melanoma = system: SK-MEL-2 melanoma
HCC-2998 colon = system: HCC-2998 colon
SF-295 CNS = system: SF-295 CNS
HCT-15 colon = system: HCT-15 colon
UO-31 renal = system: UO-31 renal
MCF7 breast = system: MCF7 breast
SF-539 CNS = system: SF-539 CNS
SF-268 CNS = system: SF-268 CNS

Row | Compound | TGI (ACHN renal) [µM] | TGI (OVCAR-3 ovarian) [µM] | TGI (SN12C renal) [µM] | TGI (SK-MEL-2 melanoma) [µM] | TGI (HCC-2998 colon) [µM] | TGI (SF-295 CNS) [µM] | TGI (HCT-15 colon) [µM] | TGI (UO-31 renal) [µM] | TGI (MCF7 breast) [µM] | TGI (SF-539 CNS) [µM] | TGI (SF-268 CNS) [µM]
1 | O=C(OCC1OC2OC(c3ccccc3)(n3ccc4c([N+](=O)[O-])ccnc43)OC2C1OC(=O)c1ccccc1)c1ccccc1 (configuration not stated) | > 100 | > 100 | > 100 | > 100 | > 100 | > 100 | > 100 | > 100 | > 100 |  | 
2 | CCCC(C)NC1=C(NC(C)=O)C(=O)c2ccccc2C1=O (configuration not stated) | > 100 | > 100 | > 100 | > 100 | > 100 | > 100 | > 100 | > 100 |  | > 100 | > 100
3 | Cc1cc(C)[n+](CCOc2ccc(/C(=C(/Cl)c3ccccc3)c3ccccc3)cc2)c(C)c1 | 31.4 | 4.07 | 6.03 | 2.18 | 2.46 | 11.2 | 27.5 | 35.7 |  | 9.82 | 7.55
4 | CCc1ccc2oc(-c3cc(O)c(-c4nc5cc(CC)ccc5o4)cc3O)nc2c1 | > 100 |  | > 100 | > 100 | > 100 |  | > 100 | > 100 | > 100 | > 100 | > 100
5 | COC(=O)C1=C2SCc3cccc(c3)CSC3=C(C(=O)OC)SC(=C(S2)S1)S3 | > 100 | > 100 | > 100 | > 100 | > 100 | > 100 |  | > 100 | > 100 |  | 
6 | COC(=O)[C@H](Cc1ccccc1)NC(=O)[C@H](Cc1ccccc1)NC(=O)[C@@H]1CCCN1C(=O)N[C@H]1C2C=CC(C2)C1C(=O)N1CCC[C@H]1C(=O)N[C@@H](C)C(=O)N[C@H](C(=O)OC)C(C)C (some centres not stated) | > 100 | > 100 | > 100 |  |  | > 100 | > 100 | > 100 | > 100 |  | > 100
7 | CN(C)Cc1cc(C(=O)/C=C/c2ccccc2Cl)cc(CN(C)C)c1O | 16.3 | 30.5 | 23.6 |  | 36.6 | 28.3 | 36 | 22.4 | 26.1 | 34 | 61.3
8 | COC(=O)[C@@H]1CCCN1CCN1CCC[C@H]1C(=O)OC | > 100 | > 100 | > 100 | > 100 |  | > 100 | > 100 | > 100 | > 100 | > 100 | > 100
9 | CC1Cn2c(nc3ccccc32)NC1=O (configuration not stated) | > 100 | > 100 |  | > 100 |  | > 100 | > 100 | > 100 | > 100 | > 100 | > 100
10 | O=C(O)c1ccc(S(=O)(=O)c2ccccc2[N+](=O)[O-])cc1 | > 10 | > 10 | > 10 | > 10 | > 10 | > 10 | > 10 |  | > 10 | > 10 | > 10
11 | NC(=O)NNC(=O)c1nc[nH]c1[N+](=O)[O-] |  | > 100 | > 100 | > 100 | > 100 |  | > 100 | > 100 | > 100 | > 100 | > 100
